Data as given in PubChem BioAssay (NCI).
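Tested at 5 concentrations; 48 h exposure; 96-well plates; endpoints linearly interpolated, else capped at highest concentration. GI50 is the concentration that inhibits growth by half. TGI is the concentration that stops growth completely.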

Columns and labels:
Assay in all cases: NCI-60 cell line screen, 48 h
HCC-2998 colon = tested on: HCC-2998 colon
HT29 colon = tested on: HT29 colon
NCI-H522 lung = tested on: NCI-H522 lung
OVCAR-3 ovarian = tested on: OVCAR-3 ovarian
RPMI-8226 leukemia = tested on: RPMI-8226 leukemia
SK-MEL-28 melanoma = tested on: SK-MEL-28 melanoma
SR leukemia = tested on: SR leukemia
DU-145 prostate = tested on: DU-145 prostate
HS 578T breast = tested on: HS 578T breast
NCI/ADR-RES ovarian = tested on: NCI/ADR-RES ovarian

Structure (SMILES)	TGI (HCC-2998 colon)	TGI (HT29 colon)	TGI (NCI-H522 lung)	TGI (OVCAR-3 ovarian)	TGI (RPMI-8226 leukemia)	TGI (SK-MEL-28 melanoma)	TGI (SR leukemia)	GI50 (DU-145 prostate)	TGI (DU-145 prostate)	GI50 (HCC-2998 colon)	GI50 (HS 578T breast)	TGI (HS 578T breast)	GI50 (HT29 colon)	GI50 (NCI-H522 lung)	GI50 (NCI/ADR-RES ovarian)	TGI (NCI/ADR-RES ovarian)	GI50 (OVCAR-3 ovarian)	GI50 (RPMI-8226 leukemia)	GI50 (SK-MEL-28 melanoma)	GI50 (SR leukemia)
COC(=O)/C(=N\NC(=O)C[N+](C)(C)C)C(C(=O)OC)C(=O)C(=O)Nc1ccccc1C(N)=O (configuration not stated)	> 100 µM	> 100 µM	> 100 µM	> 100 µM	> 100 µM	> 100 µM	> 100 µM													
Cc1cc(Cl)ccc1Nc1nc(C(F)(F)F)ccc1C(=O)N/N=C/c1ccc(Cl)cc1	4.7 µM	10.4 µM	7.96 µM	5.28 µM	6.3 µM	12.7 µM		2.56 µM	13.1 µM	1.45 µM	2.53 µM	9.62 µM	3.24 µM	2.23 µM	2.16 µM	6.38 µM	1.32 µM	2.01 µM	2.18 µM	
O=C1Nc2nc3ccccc3n2N=C2CCCC12 (configuration not stated)	> 100 µM	> 100 µM		> 100 µM	> 100 µM	> 100 µM														
O=c1c2ccccc2c(=O)n2n1CC=CC2	> 100 µM	> 100 µM	> 100 µM	> 100 µM	> 100 µM	> 100 µM														
CC1CN(c2ccc(Cl)cc2)CC(C)OC(=O)O1 (configuration not stated)	> 100 µM	> 100 µM	> 100 µM	> 100 µM	> 100 µM	> 100 µM	> 100 µM													
COCC(O)Cn1ccnc1[N+](=O)[O-] (configuration not stated)	> 100 µM	> 100 µM	> 100 µM	> 100 µM	> 100 µM	> 100 µM	> 100 µM													
OCC1C(/C=C/c2ccoc2)ON2CCCC12 (configuration not stated)	> 100 µM	> 100 µM	> 100 µM			> 100 µM														
COc1cccc(-c2nn(-c3ccccc3)cc2-c2ccnc(NCCCNC(=O)Nc3ccc(Cl)c(Cl)c3)c2)c1	4.22 µM	5.19 µM		17.3 µM	5.37 µM	4.16 µM	4.62 µM	5.47 µM	23 µM	2.17 µM	2.35 µM	7.53 µM	2.55 µM		2.19 µM	5.39 µM	4.57 µM	2.13 µM	1.93 µM	1.73 µM
c1csc(-c2cn3nc(-c4c[nH]c5ccccc45)sc3n2)c1	26.7 µM	10.2 µM	> 100 µM	9.02 µM	15.4 µM	44 µM		2.86 µM	> 100 µM	2.99 µM	2.65 µM	> 100 µM	0.413 µM	0.754 µM	0.561 µM	> 100 µM	0.924 µM	1.47 µM	4.74 µM	
Cc1cc(NCCCCCCNc2cc(C)nc3cc(N(C)C)ccc23)c2ccc(N(C)C)cc2n1	> 100 µM	> 100 µM	> 100 µM	> 100 µM		> 100 µM	> 100 µM													
O=C1C2C3C=C4c5ccccc5N(c5ccccc5)C4(C2C(=O)N1c1ccc(Cl)cc1)[C@H]1C(=O)N(c2ccc(Cl)cc2)C(=O)[C@@H]31 (some centres not stated)		> 100 µM	> 100 µM	> 100 µM	> 100 µM		> 100 µM													
N#CCCN(CCCN(CCCN(C(=O)Nc1ccccc1)c1ccccc1)C(=O)Nc1ccccc1)C(=O)Nc1ccccc1	> 100 µM	> 8.75 µM		> 100 µM	> 100 µM	> 100 µM	> 8.75 µM	> 100 µM	> 100 µM			> 100 µM			> 100 µM	> 100 µM	> 100 µM	3.89 µM	> 100 µM	
Cc1ccc([N+](=O)[O-])cc1NC(=O)/C(=N/NC(=S)NN)C1SC(=S)NC1=O (configuration not stated)		> 100 µM	> 100 µM		> 100 µM	> 100 µM	> 100 µM													
CCN(CC)CCOc1ccc(CCc2cc(OC)c(OC)c(OC)c2)cc1		39 µM	> 100 µM	> 100 µM	51.5 µM	> 100 µM	> 100 µM													
O=c1[nH]nc2ccccc2c1Cc1ccccc1	> 100 µM	> 100 µM		> 100 µM	> 100 µM	> 100 µM														
CCC(C)[C@H]1O[C@]2(C=C[C@@H]1C)C[C@@H]1C[C@@H](C/C=C(\C)[C@@H](OC3C[C@H](OC)C(O[C@H]4C[C@H](OC)[C@@H](O)[C@H](C)O4)[C@H](C)O3)[C@@H](C)/C=C/C=C3\CO[C@@H]4[C@H](O)C(C)=C[C@@H](C(=O)O1)[C@]34O)O2 (some centres not stated)	1.67 µM	1.78 µM	1.93 µM	1.66 µM	50 µM	7.23 µM		0.907 µM	1.62 µM	0.843 µM	1.02 µM	2.87 µM	0.857 µM	0.89 µM	1.41 µM	4.77 µM	0.904 µM	1.58 µM	2.08 µM	
O=C(CC(=O)C1=CNc2ccccc2S1)C(=O)Nc1ccc(Cl)cc1	> 50 µM	> 50 µM	> 50 µM	> 50 µM	> 50 µM	> 50 µM														
Cc1oc2c(C)c3oc(=O)cc(C)c3cc2c1CN1C(=O)C2OCCOCCOCCOCCOCCO[C@H]2C1=O (some centres not stated)	> 100 µM	> 100 µM	> 100 µM	> 100 µM	> 100 µM		> 100 µM													
CC(=O)C(=Cc1ccc(C=C(C(C)=O)C(C)=O)cc1)C(C)=O	7.66 µM	3.05 µM	1.93 µM	5 µM	1.71 µM	4.48 µM			11.9 µM			22.6 µM				11.2 µM				
O=C(O)c1cc2ccc3ccccc3c2oc1=O	> 100 µM	> 100 µM	> 100 µM	> 100 µM	> 100 µM	> 100 µM	> 100 µM					> 100 µM				> 100 µM				
O=[N+]([O-])c1ccc2c(c1)Cc1cc(N=Cc3ccc4c(c3)OCO4)ccc1-2		> 100 µM	> 100 µM	> 100 µM	> 100 µM	> 100 µM			> 100 µM			> 100 µM				> 100 µM				
